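These data come from cells grown in 96-well plates and exposed to compound for 48 hours at five concentrations. At the GI50, growth is halved. TGI denotes the concentration required for complete inhibition of growth.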
Experiments:
Assay in all cases: NCI anticancer screen, dose series, 48 h
COLO 205 colon = test system: COLO 205 colon
EKVX NSCLC = test system: EKVX NSCLC
LOX IMVI melanoma = test system: LOX IMVI melanoma
MOLT-4 leukemia = test system: MOLT-4 leukemia
OVCAR-4 ovarian = test system: OVCAR-4 ovarian
SF-539 CNS = test system: SF-539 CNS
SN12C renal = test system: SN12C renal
SW-620 colon = test system: SW-620 colon
HCT-15 colon = test system: HCT-15 colon
SK-MEL-2 melanoma = test system: SK-MEL-2 melanoma

Row | SMILES | TGI (COLO 205 colon) [µM] | TGI (EKVX NSCLC) [µM] | TGI (LOX IMVI melanoma) [µM] | TGI (MOLT-4 leukemia) [µM] | TGI (OVCAR-4 ovarian) [µM] | TGI (SF-539 CNS) [µM] | TGI (SN12C renal) [µM] | TGI (SW-620 colon) [µM] | GI50 (COLO 205 colon) [µM] | GI50 (EKVX NSCLC) [µM] | GI50 (HCT-15 colon) [µM] | TGI (HCT-15 colon) [µM] | GI50 (LOX IMVI melanoma) [µM] | GI50 (MOLT-4 leukemia) [µM] | GI50 (OVCAR-4 ovarian) [µM] | GI50 (SF-539 CNS) [µM] | GI50 (SN12C renal) [µM] | GI50 (SW-620 colon) [µM] | TGI (SK-MEL-2 melanoma) [µM] | GI50 (SK-MEL-2 melanoma) [µM]
1 | c1ccc(COc2cccc3cccnc23)cc1 | > 100 | > 100 | > 100 | > 100 | > 100 | > 100 | > 100 | > 100 | – | – | – | – | – | – | – | – | – | – | – | –
2 | Cc1nc2sc(C(=O)Nc3cccc(Cl)c3C)c(N)c2cc1C(C)O (configuration not stated) | 7.04 | > 77 | > 44.1 | > 42.7 | > 68.4 | 1.9 | > 47.4 | > 54.3 | 0.257 | 0.533 | 0.091 | > 39.6 | 0.274 | 0.151 | 3.45 | 0.181 | 0.916 | 0.127 | – | –
3 | O=C1C2=C(c3ccccc31)C(c1ccc(F)cc1)N1C(=O)CCSC1=N2 (configuration not stated) | > 100 | > 100 | – | > 100 | > 100 | > 100 | > 100 | > 100 | – | – | – | > 100 | – | – | – | – | – | – | > 100 | –
4 | COC(=O)/C(=N/O)C(C(=O)OC)C(=O)C(=O)Nc1c(Cl)cc(C)cc1S(=O)(=O)O (configuration not stated) | > 100 | > 100 | > 100 | > 100 | > 100 | > 100 | > 100 | – | – | – | – | > 100 | – | – | – | – | – | – | > 100 | –
5 | Cc1cc(Cl)ccc1NC(=O)NC(C)(C)COC(=O)Nc1cccc(Cl)c1 | 20.2 | – | – | 79 | 90.6 | > 100 | > 100 | > 100 | 7.18 | – | 2.48 | 13.1 | – | 6.19 | 6.55 | 9.4 | 7.14 | 7.45 | 34.1 | 8.08
6 | COC(=O)c1nn(C(=N)c2ccc(Cl)cc2)c2c1CCCCC2 | > 100 | – | > 100 | > 100 | > 100 | > 100 | > 100 | > 100 | – | – | – | > 100 | – | – | – | – | – | – | > 100 | –
7 | O=C(Nc1ccccc1C(=O)Nc1nccs1)c1ccccc1 | > 100 | > 100 | > 100 | > 100 | – | > 100 | > 100 | > 100 | – | – | – | > 100 | – | – | – | – | – | – | > 100 | –
8 | [N-]=[N+]=Nc1c(Br)c(=O)[nH]c(=O)n1COCCO | > 100 | – | > 100 | > 100 | > 100 | > 100 | > 100 | > 100 | – | – | – | – | – | – | – | – | – | – | – | –
9 | CC1(C)N=C(N)N=C(N)N1c1ccc(OCCCCNC(=O)c2ccc(S(=O)(=O)F)cc2)c(Cl)c1 | > 100 | – | > 100 | > 100 | > 100 | > 100 | > 100 | > 100 | 68.4 | – | 23.3 | > 100 | 1.9 | 21.3 | 93.7 | 7.11 | 4.47 | 3.51 | > 100 | 77.2
10 | N=C1C(c2nc(-c3ccc(Br)cc3)cs2)=C(O)CN1CC1CCCO1 (configuration not stated) | > 100 | > 100 | – | > 100 | – | > 100 | > 100 | – | > 100 | > 100 | > 100 | > 100 | – | > 100 | – | > 100 | > 100 | – | > 100 | > 100
11 | O=c1oc2cc(OS(=O)(=O)c3ccccc3)ccc2c2c1CCCCC2 | > 100 | – | > 100 | > 100 | > 100 | > 100 | > 100 | > 100 | 3.51 | – | 3.92 | > 100 | 8.71 | 4.35 | 4.58 | 6.68 | 7.24 | 4.89 | > 100 | > 100
12 | Cc1[nH]n(-c2ccccc2)c(=O)c1C(=O)c1ccccc1 | > 25 | – | > 25 | > 25 | > 25 | > 25 | > 25 | > 25 | > 25 | – | > 23.9 | > 25 | > 25 | > 25 | > 25 | > 25 | > 25 | > 25 | > 25 | > 25
13 | COc1cc(C(=O)C/C(CCC(=O)Nc2ccc(Cl)cc2Cl)=N/Nc2nnc(C)n2N)ccc1O | > 100 | > 100 | > 100 | – | – | > 100 | > 100 | > 100 | – | – | – | > 100 | – | – | – | – | – | – | > 100 | –
14 | COc1cc(CNC(=O)CCSc2nc3ccccc3c(=O)n2Cc2cc(OC)c(OC)c(OC)c2)cc(OC)c1OC | 23.2 | – | > 100 | > 100 | 77.1 | 10.7 | > 100 | > 100 | 5.32 | – | 2.47 | > 100 | 7.05 | 7.38 | 10.8 | 2.86 | 8.1 | 4.31 | 8.14 | 2.82
15 | COc1cc(CC2CC(c3ccc4c(c3)OCO4)OC2=O)cc(OC)c1OC (configuration not stated) | > 100 | > 100 | > 100 | > 100 | – | > 100 | > 100 | > 100 | – | – | – | > 100 | – | – | – | – | – | – | – | –
16 | COc1cc(/C=C\c2cc(OC)c(OC)c(OC)c2)cc(NS(=O)(=O)c2cccc(Cl)c2)c1OC | 0.851 | > 100 | > 100 | > 100 | > 100 | – | > 100 | > 100 | 0.261 | 0.264 | 0.146 | > 100 | 0.0574 | 0.0456 | 0.248 | – | 0.223 | 0.0438 | > 100 | 1.38
17 | COC(=O)C12C3C4C1C1C2C3C41C(=O)N(C(C)C)C(C)C (configuration not stated) | > 100 | > 100 | – | > 100 | > 100 | > 100 | > 100 | > 100 | – | – | – | > 100 | – | – | – | – | – | – | – | –
18 | Cc1cccc(O)c(=O)c1 | 37.8 | 98.9 | > 100 | > 100 | > 100 | > 100 | > 100 | > 100 | – | – | – | > 100 | – | – | – | – | – | – | – | –

Reference: PubChem BioAssay (NCI)
